Assay [1] concerns the target T1, Tyrosine-protein kinase receptor TYRO3 (Homo sapiens) (UniProt Q06418).
T1 sequence (whole entry): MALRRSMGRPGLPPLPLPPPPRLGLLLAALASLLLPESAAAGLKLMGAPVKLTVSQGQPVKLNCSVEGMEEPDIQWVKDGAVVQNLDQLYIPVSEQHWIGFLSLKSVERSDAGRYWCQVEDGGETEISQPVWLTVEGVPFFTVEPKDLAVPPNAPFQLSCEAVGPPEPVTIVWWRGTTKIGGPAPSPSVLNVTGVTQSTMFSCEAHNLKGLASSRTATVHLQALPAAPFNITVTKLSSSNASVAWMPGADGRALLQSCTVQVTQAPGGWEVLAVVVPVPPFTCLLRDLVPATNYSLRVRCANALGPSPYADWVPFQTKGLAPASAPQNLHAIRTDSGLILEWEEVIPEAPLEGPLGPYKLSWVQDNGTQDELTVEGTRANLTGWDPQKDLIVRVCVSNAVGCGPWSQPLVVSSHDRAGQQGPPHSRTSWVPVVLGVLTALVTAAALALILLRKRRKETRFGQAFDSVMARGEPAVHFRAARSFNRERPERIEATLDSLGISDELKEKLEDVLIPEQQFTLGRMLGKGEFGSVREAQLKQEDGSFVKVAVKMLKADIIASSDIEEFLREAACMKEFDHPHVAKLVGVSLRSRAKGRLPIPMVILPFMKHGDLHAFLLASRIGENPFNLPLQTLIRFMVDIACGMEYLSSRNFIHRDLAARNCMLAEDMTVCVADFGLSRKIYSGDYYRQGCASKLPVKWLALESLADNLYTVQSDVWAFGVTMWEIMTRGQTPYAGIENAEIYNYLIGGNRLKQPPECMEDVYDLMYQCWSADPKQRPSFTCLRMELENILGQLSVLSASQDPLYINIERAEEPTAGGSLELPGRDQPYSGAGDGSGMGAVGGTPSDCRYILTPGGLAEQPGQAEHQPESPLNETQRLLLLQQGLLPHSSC
In words: Inhibition of TYRO3 (unknown origin) at 0.5 uM relative to control.

Assay [2] deals with Receptor-interacting serine/threonine-protein kinase 2 (Homo sapiens) (UniProt O43353). Put plainly: Inhibition of RIPK2 (unknown origin) at 0.5 uM relative to control.
Receptor-interacting serine/threonine-protein kinase 2 (Homo sapiens), sequence (O43353 whole entry): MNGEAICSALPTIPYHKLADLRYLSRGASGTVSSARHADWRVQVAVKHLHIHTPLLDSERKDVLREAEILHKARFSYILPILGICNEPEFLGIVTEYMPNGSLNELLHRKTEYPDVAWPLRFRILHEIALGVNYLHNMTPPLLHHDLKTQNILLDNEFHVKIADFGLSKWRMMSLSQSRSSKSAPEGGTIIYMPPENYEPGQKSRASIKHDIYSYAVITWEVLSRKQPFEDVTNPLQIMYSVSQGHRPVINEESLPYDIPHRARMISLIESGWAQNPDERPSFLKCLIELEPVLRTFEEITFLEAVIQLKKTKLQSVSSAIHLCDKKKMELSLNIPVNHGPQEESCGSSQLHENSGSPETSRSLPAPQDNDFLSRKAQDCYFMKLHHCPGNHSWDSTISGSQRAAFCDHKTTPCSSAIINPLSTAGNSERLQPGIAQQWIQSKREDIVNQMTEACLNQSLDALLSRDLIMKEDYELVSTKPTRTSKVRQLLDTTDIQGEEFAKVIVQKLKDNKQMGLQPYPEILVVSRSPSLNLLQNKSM
Assay [3] deals with NT-3 growth factor receptor (Homo sapiens) (UniProt Q16288). Put plainly: Inhibition of TRKC (unknown origin) at 0.5 uM relative to control.
NT-3 growth factor receptor (Homo sapiens), sequence (Q16288 32-839 limits assumed): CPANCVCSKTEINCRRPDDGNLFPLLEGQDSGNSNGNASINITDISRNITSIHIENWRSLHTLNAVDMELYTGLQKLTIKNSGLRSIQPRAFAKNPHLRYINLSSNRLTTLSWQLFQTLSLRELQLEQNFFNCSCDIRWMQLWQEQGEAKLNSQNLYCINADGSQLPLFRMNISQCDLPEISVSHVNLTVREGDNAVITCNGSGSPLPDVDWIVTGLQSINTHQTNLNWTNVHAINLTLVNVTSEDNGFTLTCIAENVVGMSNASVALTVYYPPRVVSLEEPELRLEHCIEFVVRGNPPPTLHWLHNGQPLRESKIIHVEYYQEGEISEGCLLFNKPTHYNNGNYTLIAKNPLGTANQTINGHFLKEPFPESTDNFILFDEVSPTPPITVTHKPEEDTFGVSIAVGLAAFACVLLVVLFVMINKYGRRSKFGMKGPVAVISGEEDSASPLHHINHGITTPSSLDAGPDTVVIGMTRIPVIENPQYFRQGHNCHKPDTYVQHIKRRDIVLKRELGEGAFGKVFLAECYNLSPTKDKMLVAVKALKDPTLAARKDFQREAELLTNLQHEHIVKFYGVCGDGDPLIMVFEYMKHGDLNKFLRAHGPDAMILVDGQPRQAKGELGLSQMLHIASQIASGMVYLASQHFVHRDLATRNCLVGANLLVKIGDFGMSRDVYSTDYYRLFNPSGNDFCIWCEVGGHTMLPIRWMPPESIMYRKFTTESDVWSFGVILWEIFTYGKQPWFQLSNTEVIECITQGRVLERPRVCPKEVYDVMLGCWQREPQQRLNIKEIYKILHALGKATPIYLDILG
The target in assay [4] is T2, Ephrin type-B receptor 2 (Homo sapiens) (UniProt P29323).
T2 sequence (whole entry): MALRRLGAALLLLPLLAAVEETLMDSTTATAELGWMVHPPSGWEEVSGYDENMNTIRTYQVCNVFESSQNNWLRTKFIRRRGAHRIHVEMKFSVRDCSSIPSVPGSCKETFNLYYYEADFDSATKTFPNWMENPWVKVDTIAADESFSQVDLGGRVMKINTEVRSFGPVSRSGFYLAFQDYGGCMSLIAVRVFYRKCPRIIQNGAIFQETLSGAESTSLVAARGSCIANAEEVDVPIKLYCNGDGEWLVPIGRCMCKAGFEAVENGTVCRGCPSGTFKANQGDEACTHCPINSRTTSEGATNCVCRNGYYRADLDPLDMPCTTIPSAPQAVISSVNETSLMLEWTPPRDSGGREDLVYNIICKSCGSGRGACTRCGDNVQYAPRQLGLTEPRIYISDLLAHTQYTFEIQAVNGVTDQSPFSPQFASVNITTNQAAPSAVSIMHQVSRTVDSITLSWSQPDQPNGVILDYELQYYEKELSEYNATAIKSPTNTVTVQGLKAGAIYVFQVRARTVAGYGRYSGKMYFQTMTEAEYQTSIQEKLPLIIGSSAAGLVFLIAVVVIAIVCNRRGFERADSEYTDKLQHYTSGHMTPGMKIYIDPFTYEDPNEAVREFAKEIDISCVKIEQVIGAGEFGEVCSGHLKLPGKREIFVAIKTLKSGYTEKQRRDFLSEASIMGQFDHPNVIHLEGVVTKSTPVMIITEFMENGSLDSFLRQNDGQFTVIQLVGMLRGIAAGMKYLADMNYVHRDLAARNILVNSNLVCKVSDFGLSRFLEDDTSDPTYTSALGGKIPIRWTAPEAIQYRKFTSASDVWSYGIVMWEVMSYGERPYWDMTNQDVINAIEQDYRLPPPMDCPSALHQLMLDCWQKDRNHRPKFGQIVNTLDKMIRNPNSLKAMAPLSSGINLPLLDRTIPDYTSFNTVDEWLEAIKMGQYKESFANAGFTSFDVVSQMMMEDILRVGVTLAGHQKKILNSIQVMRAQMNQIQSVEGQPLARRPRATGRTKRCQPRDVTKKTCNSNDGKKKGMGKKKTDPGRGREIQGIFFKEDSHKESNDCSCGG
In words: Inhibition of EPHB2 (unknown origin) at 0.5 uM relative to control.

Assay [5] addresses Ephrin type-A receptor 7 (Homo sapiens) (UniProt Q15375). Put plainly: Inhibition of EPHA7 (unknown origin) at 0.5 uM relative to control.
The subject of assay [6] is MDA-MB-231. Put plainly: Inhibition of HIPK4 protein expression in human MDA-MB-231 cells by Western blotting analysis. The assay is classed as functional, cell-based. (A western blot detects proteins with antibodies after separation by electrophoresis.)

The source made the active and inactive calls. No cut-off for these calls is given here.

Ephrin type-A receptor 7 (Homo sapiens), sequence (Q15375 28-998 limits assumed): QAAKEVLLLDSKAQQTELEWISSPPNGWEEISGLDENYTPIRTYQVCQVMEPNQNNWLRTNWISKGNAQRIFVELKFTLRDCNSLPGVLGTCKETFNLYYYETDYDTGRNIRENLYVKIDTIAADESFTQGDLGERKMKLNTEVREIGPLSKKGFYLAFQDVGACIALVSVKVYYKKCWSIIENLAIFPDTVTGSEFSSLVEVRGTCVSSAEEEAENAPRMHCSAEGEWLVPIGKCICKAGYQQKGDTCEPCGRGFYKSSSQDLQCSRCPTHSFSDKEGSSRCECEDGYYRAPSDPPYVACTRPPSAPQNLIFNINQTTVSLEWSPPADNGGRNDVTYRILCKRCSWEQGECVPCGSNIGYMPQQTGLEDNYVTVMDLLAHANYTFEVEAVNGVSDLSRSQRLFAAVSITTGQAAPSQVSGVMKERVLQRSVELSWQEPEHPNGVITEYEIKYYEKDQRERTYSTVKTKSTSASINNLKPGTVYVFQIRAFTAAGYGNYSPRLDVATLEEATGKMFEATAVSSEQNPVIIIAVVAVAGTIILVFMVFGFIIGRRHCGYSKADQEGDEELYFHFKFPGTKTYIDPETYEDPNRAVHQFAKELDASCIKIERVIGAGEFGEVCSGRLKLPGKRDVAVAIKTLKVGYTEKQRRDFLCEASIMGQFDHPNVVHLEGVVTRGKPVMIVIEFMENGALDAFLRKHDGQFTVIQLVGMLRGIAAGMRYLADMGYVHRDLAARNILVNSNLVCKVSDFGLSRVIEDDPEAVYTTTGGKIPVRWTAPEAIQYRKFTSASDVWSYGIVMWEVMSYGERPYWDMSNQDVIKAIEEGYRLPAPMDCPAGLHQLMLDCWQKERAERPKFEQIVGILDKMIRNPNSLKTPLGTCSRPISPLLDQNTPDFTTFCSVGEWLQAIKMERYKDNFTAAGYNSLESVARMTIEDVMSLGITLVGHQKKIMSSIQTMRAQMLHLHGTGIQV

As to `CNC(=O)c1cc(Oc2ccc(NC(=O)c3nc(C(F)(F)F)sc3-c3ccc(F)cc3)cc2)ccn1`, the inhibition in assay [1] stood at 65%.
On to `CNC(=O)c1cc(Oc2ccc(NC(=O)c3nc(SC)oc3-c3ccc(F)cc3)cc2F)ccn1`, for which the inhibition in assay [2] came out at 51%; in assay [3] it was 46%; in assay [4], 39%; in assay [5] it was 53%; in assay [1], 70%.
The matching figures for `CNC(=O)c1cc(Oc2ccc(NC(=O)c3nc(NC)sc3-c3ccc(F)cc3)cc2)ccn1`: 40%, 76%, 51%, 60% and 59%.
As to `CNC(=O)c1cc(Oc2ccc(NC(=O)c3nc(SC)n(CCN(C)C)c3-c3ccc(F)cc3)cc2)ccn1`, the inhibition in assay [3] was determined as 57%; in assay [1], 52%.
The compound `CSc1nc(C(=O)Nc2ccc(Oc3cc4cnn(C)c4cc3Br)cc2)c(-c2ccc(F)cc2)o1` returned an inhibition in assay [5] of 22%.
Turning to `CNC(=O)c1cc(Oc2ccc(NC(=O)c3nc(SC)[nH]c3-c3ccc(F)cc3)cc2)ccn1`, the inhibition in assay [3] was found to be 90%; in assay [4] it was 93%; in assay [1] it was 87%. The inhibition result in assay [6] is “Active”.
Take `CNC(=O)c1cc(Oc2ccc(NC(=O)c3nc(S(C)(=O)=O)sc3-c3ccc(F)cc3)cc2)ccn1`: the inhibition in assay [3] is 25%; in assay [4] it was 27%; in assay [1] it was 70%. Besides, in assay [6], the inhibition result was “Active”.
Turning to `CNC(=O)c1cc(Oc2ccc(NC(=O)c3nc(SC)oc3-c3ccc(F)cc3)cc2)ccn1`, the inhibition in assay [2] was determined as 63%; in assay [3], 51%; in assay [4] it was 48%; in assay [5], 41%; in assay [1] it was 82%. Further, the inhibition entry in assay [6] is “Active”.
On to `CNC(=O)c1cc(Oc2ccc(NC(=O)c3n[nH]nc3-c3ccc(F)cc3)cc2)ccn1`, for which the inhibition in assay [2] was determined as 65%; in assay [3] it was 55%; in assay [4] it was 35%.

As usually defined, the inhibition is the share of the control response that was lost under treatment.

(Values after ChEMBL document CHEMBL4806968, “Hipk inhibitors and methods of use thereof” (2020).)
